Test results as given in the supplement of paper PMC11208160.

Assay: recombinant UMI read abundance after kanamycin selection (control-corrected) (log10(CPM+1)); higher = more efficient recombination; extreme values may be limits of the assay; sequences stand for … in AGTGCAGAGAAAATCGGCCAGTTTTCTCTGCCTGCAGTCCGCATGCCGTGGGACCCCTTGGGTTCTAACCTGTTGCCTAGATTTATGCAGCGGACTGCCTTTCTCCCAAAGTGATAAACCGG…AGGTTGGTTTCACT; site = the 11-nt donor
Procedure, shortened: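 The measure is log10(CPM+1) for recombinant UMIs. These were PCR-amplified across the donor–target junction and sequenced after Escherichia coli carrying a donor and donor-binding-loop pair library and a target plasmid with T7-inducible IS621 bridge recombinase was plated on IPTG (0.07 mM) plus kanamycin or unselected. CPM were averaged over two replicates and scaled by control-derived factors.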
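Further: IS621 bridge recombinase in Escherichia coli cells against a fixed T5 target plasmid.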

Sequence	recombinant UMI read abundance (log10)
GCGAAAACATGGACCGGTTTTCCCGGTAATCCGTATTTGCT (site GCGGAAACTAG)	1.21
GCGAAAACATGGACCGGTTTTCCCGGTAATCCGTATTTGCT (site GCGTAAACTAG)	1.73
GCGAAAACATGGACCGGTTTTCCCGGTAATCCGTATTTGCT (site GCTAAAACTAG)	0
GCGAAAACATGGACCGGTTTTCCCGGTAATCCGTATTTGCT (site GGGAAAACTAG)	0
GCGAAAACATGGACCGGTTTTCCCGGTAATCCGTATTTGCT (site GTGAAAACTAG)	0
GCGAAAACATGGACCGGTTTTCCCGGTAATCCGTATTTGCT (site TCGAAAACTAG)	0
GCGAAGCCATGGACCGGTTTTCCCGGTAATCCGTATTTGCG (site GCGAAGCCTCA)	0.0182
GCGAAGCCATGGACCGGTTTTCCCGGTAATCCGTATTTGCG (site GCGAAGCCTCC)	0.0276
GCGAAGCCATGGACCGGTTTTCCCGGTAATCCGTATTTGCG (site GCGAAGCCTCG)	0.845
GCGAAGCCATGGACCGGTTTTCCCGGTAATCCGTATTTGCG (site GCGAAGCCTCT)	0.455
GCGAAGGCATGGACCGGTTTTCCCGGTAATCCGTATTTGGG (site GCGAAGACTCC)	0.255
GCGAAGGCATGGACCGGTTTTCCCGGTAATCCGTATTTGGG (site GCGAAGCCTCC)	0.00939
GCGAAGGCATGGACCGGTTTTCCCGGTAATCCGTATTTGGG (site GCGAAGGCTCC)	0.562
GCGAAGGCATGGACCGGTTTTCCCGGTAATCCGTATTTGGG (site GCGAAGTCTCC)	0.779
GCGAATACATGGACCGGTTTTCCCGGTAATCCGTATTTGCT (site GCGAAAACTAG)	0
GCGAATACATGGACCGGTTTTCCCGGTAATCCGTATTTGCT (site GCGAACACTAG)	0
GCGAATACATGGACCGGTTTTCCCGGTAATCCGTATTTGCT (site GCGAAGACTAG)	0
GCGAATACATGGACCGGTTTTCCCGGTAATCCGTATTTGCT (site GCGAATACTAG)	0
GCGAATGCATGGACCGGTTTTCCCGGTAATCCGTATTTGGA (site GCGAATGCTTC)	1.42
GCGACGCCATGGACCGGTTTTCCCGGTAATCCGTATTTGGG (site GCGAAGCCTCC)	0.0164
GCGACGCCATGGACCGGTTTTCCCGGTAATCCGTATTTGGG (site GCGACGCCTCC)	0.00484
GCGACGCCATGGACCGGTTTTCCCGGTAATCCGTATTTGGG (site GCGAGGCCTCC)	0.0192
GCGACGCCATGGACCGGTTTTCCCGGTAATCCGTATTTGGG (site GCGATGCCTCC)	0.00415
GCGATAACATGGACCGGTTTTCCCGGTAATCCGTATTTGCT (site GCGAAAACTAG)	0
GCGATAACATGGACCGGTTTTCCCGGTAATCCGTATTTGCT (site GCGACAACTAG)	0.00488

Sequence	recombinant UMI read abundance (log10)
GCGATAACATGGACCGGTTTTCCCGGTAATCCGTATTTGCT (site GCGAGAACTAG)	0
GCGATAACATGGACCGGTTTTCCCGGTAATCCGTATTTGCT (site GCGATAACTAG)	2.43
GCGATACCATGGACCGGTTTTCCCGGTAATCCGTATTTGAT (site GCGATACCTAT)	0
GCGATTCCATGGACCGGTTTTCCCGGTAATCCGTATTTGTA (site GCGATTCCTTA)	1.49
GCGCATGCATGGACCGGTTTTCCCGGTAATCCGTATTTGGT (site GAGCATGCTAC)	0.595
GCGCATGCATGGACCGGTTTTCCCGGTAATCCGTATTTGGT (site GCGCATGCTAC)	1.14
GCGCATGCATGGACCGGTTTTCCCGGTAATCCGTATTTGGT (site GGGCATGCTAC)	0.0133
GCGCATGCATGGACCGGTTTTCCCGGTAATCCGTATTTGGT (site GTGCATGCTAC)	0.622
GCGCCTCCATGGACCGGTTTTCCCGGTAATCCGTATTTGGG (site GCGCCTCCTCC)	0.0195
GCGCGCTCATGGACCGGTTTTCCCGGTAATCCGTATTTGAA (site GCGCGCTCTTT)	1.82
GCGCTCACATGGACCGGTTTTCCCGGTAATCCGTATTTGCC (site GCGCTCACTGG)	2.47
GCGGACACATGGACCGGTTTTCCCGGTAATCCGTATTTGCT (site GCGGACACTAG)	2.44
GCGGAGGCATGGACCGGTTTTCCCGGTAATCCGTATTTGTG (site GAGGAGGCTCA)	0.367
GCGGAGGCATGGACCGGTTTTCCCGGTAATCCGTATTTGTG (site GCGGAGGCTCA)	1.37
GCGGAGGCATGGACCGGTTTTCCCGGTAATCCGTATTTGTG (site GGGGAGGCTCA)	0.333
GCGGAGGCATGGACCGGTTTTCCCGGTAATCCGTATTTGTG (site GTGGAGGCTCA)	0.832
GCGGCATCATGGACCGGTTTTCCCGGTAATCCGTATTTGTC (site GCGGCATCTGA)	2.21
GCGGGCGCATGGACCGGTTTTCCCGGTAATCCGTATTTGAT (site GCGGGCGCTAT)	1.44
GCGGGTGCATGGACCGGTTTTCCCGGTAATCCGTATTTGCC (site GCGGGTGCTGG)	1.43
GCGGTTCCATGGACCGGTTTTCCCGGTAATCCGTATTTGTC (site GCGGTTCCTGA)	0
GCGTAGGCATGGACCGGTTTTCCCGGTAATCCGTATTTGCT (site GCGTAGGCTAG)	2.51
GCGTCAACATGGACCGGTTTTCCCGGTAATCCGTATTTGCG (site GCGTCAACTCG)	0.00614
GCGTCGTCATGGACCGGTTTTCCCGGTAATCCGTATTTGTT (site GCGTCGTCTAA)	0.947
GCTACCTCATGGACCGGTTTTCCCGGTAATCCGTATTTGTC (site GCTACCTCTGA)	2.17
GCTACGCCATGGACCGGTTTTCCCGGTAATCCGTATTTGTA (site GCAACGCCTTA)	0.00895

Sequence	recombinant UMI read abundance (log10)
GCTACGCCATGGACCGGTTTTCCCGGTAATCCGTATTTGTA (site GCCACGCCTTA)	0.0278
GCTACGCCATGGACCGGTTTTCCCGGTAATCCGTATTTGTA (site GCGACGCCTTA)	0.162
GCTACGCCATGGACCGGTTTTCCCGGTAATCCGTATTTGTA (site GCTACGCCTTA)	0.343
GCTACTCCATGGACCGGTTTTCCCGGTAATCCGTATTTGCC (site GCTACTACTGG)	0
GCTACTCCATGGACCGGTTTTCCCGGTAATCCGTATTTGCC (site GCTACTCCTGG)	0
GCTACTCCATGGACCGGTTTTCCCGGTAATCCGTATTTGCC (site GCTACTGCTGG)	0
GCTACTCCATGGACCGGTTTTCCCGGTAATCCGTATTTGCC (site GCTACTTCTGG)	0.0501
GCTACTGCATGGACCGGTTTTCCCGGTAATCCGTATTTGGC (site GCTACTGCTGA)	0.76
GCTACTGCATGGACCGGTTTTCCCGGTAATCCGTATTTGGC (site GCTACTGCTGC)	1.92
GCTACTGCATGGACCGGTTTTCCCGGTAATCCGTATTTGGC (site GCTACTGCTGG)	0
GCTACTGCATGGACCGGTTTTCCCGGTAATCCGTATTTGGC (site GCTACTGCTGT)	1.54
GCTAGAACATGGACCGGTTTTCCCGGTAATCCGTATTTGGC (site GATAGAACTGC)	0
GCTAGAACATGGACCGGTTTTCCCGGTAATCCGTATTTGGC (site GCTAGAACTGC)	2.02
GCTAGAACATGGACCGGTTTTCCCGGTAATCCGTATTTGGC (site GGTAGAACTGC)	0
GCTAGAACATGGACCGGTTTTCCCGGTAATCCGTATTTGGC (site GTTAGAACTGC)	0
GCTAGCACATGGACCGGTTTTCCCGGTAATCCGTATTTGCT (site GCTAGCACTAG)	1.64
GCTAGTGCATGGACCGGTTTTCCCGGTAATCCGTATTTGCC (site GCTAATGCTGG)	0
GCTAGTGCATGGACCGGTTTTCCCGGTAATCCGTATTTGCC (site GCTACTGCTGG)	0
GCTAGTGCATGGACCGGTTTTCCCGGTAATCCGTATTTGCC (site GCTAGTGCTGG)	1.86
GCTAGTGCATGGACCGGTTTTCCCGGTAATCCGTATTTGCC (site GCTATTGCTGG)	0
GCTATCACATGGACCGGTTTTCCCGGTAATCCGTATTTGGG (site GCTATCACTCC)	0.147
GCTATTGCATGGACCGGTTTTCCCGGTAATCCGTATTTGCC (site GCTAATGCTGG)	0
GCTATTGCATGGACCGGTTTTCCCGGTAATCCGTATTTGCC (site GCTACTGCTGG)	0
GCTATTGCATGGACCGGTTTTCCCGGTAATCCGTATTTGCC (site GCTAGTGCTGG)	0.00747
GCTATTGCATGGACCGGTTTTCCCGGTAATCCGTATTTGCC (site GCTATTGCTGG)	0.891
